Experimental data: patent publication US5776489A, “Controlled release carbonic anhydrase inhibitor containing pharmaceutical compositions from spherical granules in capsule oral dosage unit form” (priority 1992, dated 1998)
In brackets after ≈: the same amount, converted by molar mass.

Legend:
[1] = pH 1.2
[2] = cited from earlier work

degradation in gastric fluid [1]: degradation | solubility in gastric fluid [1]: poor solubility
Compound: CC(=O)/N=c1/sc(S(N)(=O)=O)nn1C [methazolamide]
solubility ([2]; pH 7.2 phosphate buffer): 3400 µg/mL (≈ 14.4 mM) | aqueous solubility ([2]; water, 25° C.): 1500 µg/mL (≈ 6.35 mM)
